The values below come from ChEMBL document CHEMBL1156495 (J Biol Chem, 2007).

Active and inactive are the calls of the source. The rule behind the calls is not given here. Residues, ends and D or L forms follow the SMILES beside them.

For experiment [1], the species on record is Homo sapiens. The experiment in a line: Inhibition of amidolytic activity of human alpha-thrombin upto 24 hrs by RP-HPLC.
The species named for experiment [2] is Homo sapiens. As to the kind of experiment: Inhibition of amidolytic activity of human alpha-thrombin after 60 mins by RP-HPLC.
The subject of another experiment is Plasma. As to the kind of experiment: Anticoagulant activity in human citreated plasma assessed as prolongation of fibrinogen clotting time. In kind it is functional, cell-free.
Experiment [3] deals with Coagulation factor X (Homo sapiens) (UniProt P00742). As to the kind of experiment: Inhibition of human factor 10a at 1 uM.
Chain of Coagulation factor X (Homo sapiens) (P00742 41-179 limits assumed): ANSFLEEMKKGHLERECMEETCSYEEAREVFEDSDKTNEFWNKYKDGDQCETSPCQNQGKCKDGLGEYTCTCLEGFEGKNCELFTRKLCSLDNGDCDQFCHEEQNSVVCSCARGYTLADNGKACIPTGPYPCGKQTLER
Chain of Coagulation factor X (Homo sapiens) (P00742 235-488 limits assumed): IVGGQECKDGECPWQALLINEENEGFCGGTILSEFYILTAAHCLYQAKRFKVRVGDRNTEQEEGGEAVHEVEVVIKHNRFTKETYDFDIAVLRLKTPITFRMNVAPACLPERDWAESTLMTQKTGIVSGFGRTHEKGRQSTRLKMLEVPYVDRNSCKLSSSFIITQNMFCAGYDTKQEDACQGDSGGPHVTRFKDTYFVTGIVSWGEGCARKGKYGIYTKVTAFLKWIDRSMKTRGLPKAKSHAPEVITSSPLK
Experiment [4] addresses Coagulation factor IX (Homo sapiens) (UniProt P00740). The experiment in a line: Inhibition of human factor 9a at 1 uM.
Experiment [5] has as its target Coagulation factor XI (Homo sapiens) (UniProt P03951). As to the kind of experiment: Inhibition of human factor 11a at 100 uM.
The species entered for experiment [6] is Homo sapiens. As to the kind of experiment: Inhibition of human chymotrypsin at 1 uM.
Experiment [7] addresses T1, Coagulation factor XII (Homo sapiens) (UniProt P00748).
T1 sequence (whole entry): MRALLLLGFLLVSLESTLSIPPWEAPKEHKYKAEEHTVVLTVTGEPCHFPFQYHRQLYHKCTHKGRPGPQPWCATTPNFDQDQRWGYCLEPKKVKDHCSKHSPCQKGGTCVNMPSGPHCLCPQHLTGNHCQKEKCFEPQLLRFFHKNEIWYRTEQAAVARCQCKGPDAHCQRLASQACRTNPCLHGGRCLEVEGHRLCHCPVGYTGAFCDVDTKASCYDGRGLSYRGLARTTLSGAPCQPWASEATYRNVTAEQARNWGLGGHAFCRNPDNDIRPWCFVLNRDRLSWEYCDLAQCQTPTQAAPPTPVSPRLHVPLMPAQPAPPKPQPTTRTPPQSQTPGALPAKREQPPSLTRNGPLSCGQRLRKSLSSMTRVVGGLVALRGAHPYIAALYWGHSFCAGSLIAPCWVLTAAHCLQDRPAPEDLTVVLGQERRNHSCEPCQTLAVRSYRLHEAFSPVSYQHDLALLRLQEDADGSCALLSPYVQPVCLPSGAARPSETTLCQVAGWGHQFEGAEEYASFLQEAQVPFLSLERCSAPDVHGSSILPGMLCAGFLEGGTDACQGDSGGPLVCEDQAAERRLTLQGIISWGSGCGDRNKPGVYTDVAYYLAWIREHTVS
The experiment in a line: Inhibition of human factor 12a at 1 uM.

Experiment [8] deals with Plasma kallikrein (Homo sapiens) (UniProt P03952). The experiment in a line: Inhibition of human kallikrein at 1 uM.
Chain of Plasma kallikrein (Homo sapiens) (P03952 20-390 limits assumed): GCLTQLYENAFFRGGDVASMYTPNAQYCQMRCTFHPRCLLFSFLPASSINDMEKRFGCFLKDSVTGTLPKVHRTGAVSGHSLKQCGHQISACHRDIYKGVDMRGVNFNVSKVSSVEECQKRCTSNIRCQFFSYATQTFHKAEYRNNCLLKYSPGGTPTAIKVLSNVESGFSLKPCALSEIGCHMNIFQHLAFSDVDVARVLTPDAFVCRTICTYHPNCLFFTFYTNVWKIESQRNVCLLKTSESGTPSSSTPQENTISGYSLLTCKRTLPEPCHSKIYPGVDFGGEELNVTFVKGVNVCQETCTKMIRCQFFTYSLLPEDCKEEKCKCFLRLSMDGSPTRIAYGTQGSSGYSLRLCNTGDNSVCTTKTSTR
Chain of Plasma kallikrein (Homo sapiens) (P03952 391-638 limits assumed): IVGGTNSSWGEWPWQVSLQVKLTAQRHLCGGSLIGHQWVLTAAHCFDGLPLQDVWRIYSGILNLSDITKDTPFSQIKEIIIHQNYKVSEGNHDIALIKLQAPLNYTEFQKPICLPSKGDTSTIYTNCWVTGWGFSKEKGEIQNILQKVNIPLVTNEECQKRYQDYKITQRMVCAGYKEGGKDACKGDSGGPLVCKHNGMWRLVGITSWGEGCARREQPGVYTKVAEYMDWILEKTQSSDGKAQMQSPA
The target of experiment [9] is Plasminogen (Homo sapiens) (UniProt P00747). As to the kind of experiment: Inhibition of human plasmin at 1 uM.
Chain of Plasminogen (Homo sapiens) (P00747 97-580 limits assumed): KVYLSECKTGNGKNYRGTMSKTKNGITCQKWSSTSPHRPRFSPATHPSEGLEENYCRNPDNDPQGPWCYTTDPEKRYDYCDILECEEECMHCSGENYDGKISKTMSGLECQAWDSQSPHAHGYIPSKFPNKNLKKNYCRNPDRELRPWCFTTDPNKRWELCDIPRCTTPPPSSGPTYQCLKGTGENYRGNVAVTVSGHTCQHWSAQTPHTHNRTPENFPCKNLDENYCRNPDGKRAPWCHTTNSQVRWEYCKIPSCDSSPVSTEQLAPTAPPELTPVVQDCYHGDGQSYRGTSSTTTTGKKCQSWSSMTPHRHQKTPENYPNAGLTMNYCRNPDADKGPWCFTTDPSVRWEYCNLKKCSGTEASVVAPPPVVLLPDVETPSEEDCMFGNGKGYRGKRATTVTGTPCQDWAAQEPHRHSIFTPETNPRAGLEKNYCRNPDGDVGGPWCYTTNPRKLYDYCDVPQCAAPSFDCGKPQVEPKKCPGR
Chain of Plasminogen (Homo sapiens) (P00747 581-810 limits assumed): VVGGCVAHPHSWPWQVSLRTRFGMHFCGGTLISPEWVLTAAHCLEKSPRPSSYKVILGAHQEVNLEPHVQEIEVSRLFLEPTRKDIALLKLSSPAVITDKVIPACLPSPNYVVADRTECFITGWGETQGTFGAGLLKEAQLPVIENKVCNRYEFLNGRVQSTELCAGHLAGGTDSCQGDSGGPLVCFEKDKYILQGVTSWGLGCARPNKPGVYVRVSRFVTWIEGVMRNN
Experiment [10] shares this target. The experiment in a line: Inhibition of human plasmin at 100 uM.
Experiment [11] addresses T2, Trypsin (Homo sapiens) (UniProt P07477+P07478+P35030). As to the kind of experiment: Inhibition of human trypsin at 100 uM. Format: protein assay.
The target in experiment [12] is Vitamin K-dependent protein C (Homo sapiens) (UniProt P04070). As to the kind of experiment: Inhibition of human Activated protein C at 1 uM.
Chain of Vitamin K-dependent protein C (Homo sapiens) (P04070 43-197 limits assumed): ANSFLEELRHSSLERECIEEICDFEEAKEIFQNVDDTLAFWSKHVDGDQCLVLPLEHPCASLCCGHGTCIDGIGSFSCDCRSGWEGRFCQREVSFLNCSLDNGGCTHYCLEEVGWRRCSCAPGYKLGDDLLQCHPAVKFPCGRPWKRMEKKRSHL
Chain of Vitamin K-dependent protein C (Homo sapiens) (P04070 212-461 limits assumed): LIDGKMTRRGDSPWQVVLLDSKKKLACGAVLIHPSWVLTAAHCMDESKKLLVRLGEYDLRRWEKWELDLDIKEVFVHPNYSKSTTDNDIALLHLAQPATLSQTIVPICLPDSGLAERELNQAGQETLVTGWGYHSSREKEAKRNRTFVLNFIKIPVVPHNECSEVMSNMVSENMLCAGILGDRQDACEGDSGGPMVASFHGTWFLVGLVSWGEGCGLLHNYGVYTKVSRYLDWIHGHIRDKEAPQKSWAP
In experiment [13] the target is T3, Coagulation factor VII (Homo sapiens) (UniProt P08709).
T3 sequence (whole entry): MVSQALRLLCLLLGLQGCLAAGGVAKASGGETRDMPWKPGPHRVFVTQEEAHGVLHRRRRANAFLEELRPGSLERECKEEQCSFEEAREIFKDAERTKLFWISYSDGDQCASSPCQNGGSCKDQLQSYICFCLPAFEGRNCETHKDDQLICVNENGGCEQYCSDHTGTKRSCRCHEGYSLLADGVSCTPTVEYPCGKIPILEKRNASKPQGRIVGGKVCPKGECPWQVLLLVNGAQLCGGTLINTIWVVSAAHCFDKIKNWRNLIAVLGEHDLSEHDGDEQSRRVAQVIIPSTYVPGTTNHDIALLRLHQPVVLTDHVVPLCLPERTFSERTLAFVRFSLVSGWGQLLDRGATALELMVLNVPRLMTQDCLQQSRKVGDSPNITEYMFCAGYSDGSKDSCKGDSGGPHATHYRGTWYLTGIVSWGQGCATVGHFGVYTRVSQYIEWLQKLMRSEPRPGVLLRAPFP
As to the kind of experiment: Inhibition of human factor 7a at 1 uM.

The species named for experiment [14] is Homo sapiens. The experiment in a line: Inhibition of human alpha-thrombin at 1 uM.
Experiment [15] has as its target T2, Trypsin (Homo sapiens). As to the kind of experiment: Inhibition of human trypsin at 1 uM. In kind it is protein assay.
Experiment [16] concerns the target Urokinase-type plasminogen activator (Homo sapiens) (UniProt P00749). The experiment in a line: Inhibition of human urokinase at 1 uM.
For experiment [17], the target named is Coagulation factor XI (Homo sapiens) (UniProt P03951). The experiment in a line: Inhibition of human factor 11a at 1 uM.
Chain of Coagulation factor XI (Homo sapiens) (P03951 19-387 limits assumed): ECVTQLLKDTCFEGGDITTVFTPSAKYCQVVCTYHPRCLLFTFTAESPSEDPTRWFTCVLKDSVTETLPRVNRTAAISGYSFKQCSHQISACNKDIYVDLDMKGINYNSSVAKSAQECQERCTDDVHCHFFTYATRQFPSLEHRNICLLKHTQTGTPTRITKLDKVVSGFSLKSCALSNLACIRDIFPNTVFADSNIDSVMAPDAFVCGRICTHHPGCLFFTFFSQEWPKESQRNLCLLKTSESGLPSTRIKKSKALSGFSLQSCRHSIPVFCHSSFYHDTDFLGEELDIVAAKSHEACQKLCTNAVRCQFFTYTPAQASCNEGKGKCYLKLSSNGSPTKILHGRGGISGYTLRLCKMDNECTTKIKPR
Chain of Coagulation factor XI (Homo sapiens) (P03951 388-625 limits assumed): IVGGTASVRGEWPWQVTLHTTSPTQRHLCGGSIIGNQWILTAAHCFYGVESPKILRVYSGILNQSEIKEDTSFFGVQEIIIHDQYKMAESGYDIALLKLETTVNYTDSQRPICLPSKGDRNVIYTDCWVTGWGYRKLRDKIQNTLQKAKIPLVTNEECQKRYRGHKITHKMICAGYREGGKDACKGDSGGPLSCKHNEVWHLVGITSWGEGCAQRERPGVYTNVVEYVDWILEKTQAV
For experiment [18], the target named is Tissue-type plasminogen activator (Homo sapiens) (UniProt P00750). The experiment in a line: Inhibition of human tissue plasminogen activator at 1 uM.
Chain of Tissue-type plasminogen activator (Homo sapiens) (P00750 36-562 limits assumed): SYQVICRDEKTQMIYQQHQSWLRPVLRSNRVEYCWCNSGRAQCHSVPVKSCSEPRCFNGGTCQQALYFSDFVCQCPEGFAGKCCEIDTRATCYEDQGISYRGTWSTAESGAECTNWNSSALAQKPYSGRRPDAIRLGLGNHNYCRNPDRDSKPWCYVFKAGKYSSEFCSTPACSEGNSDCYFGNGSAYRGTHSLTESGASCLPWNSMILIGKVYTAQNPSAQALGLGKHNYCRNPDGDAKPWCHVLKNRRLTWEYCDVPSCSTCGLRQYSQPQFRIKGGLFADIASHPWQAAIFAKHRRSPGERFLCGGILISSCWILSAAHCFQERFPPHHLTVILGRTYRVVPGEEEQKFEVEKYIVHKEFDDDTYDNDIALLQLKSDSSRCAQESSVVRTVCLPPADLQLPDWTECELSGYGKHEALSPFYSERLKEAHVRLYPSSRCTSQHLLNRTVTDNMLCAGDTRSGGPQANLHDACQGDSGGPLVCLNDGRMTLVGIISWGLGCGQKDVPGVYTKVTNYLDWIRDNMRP

Chain of Coagulation factor IX (Homo sapiens) (P00740 47-191 limits assumed): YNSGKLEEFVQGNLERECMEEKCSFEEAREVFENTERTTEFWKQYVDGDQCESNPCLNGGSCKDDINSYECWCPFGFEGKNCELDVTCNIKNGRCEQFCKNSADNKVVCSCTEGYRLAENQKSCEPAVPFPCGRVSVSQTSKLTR
Chain of Coagulation factor IX (Homo sapiens) (P00740 227-461 limits assumed): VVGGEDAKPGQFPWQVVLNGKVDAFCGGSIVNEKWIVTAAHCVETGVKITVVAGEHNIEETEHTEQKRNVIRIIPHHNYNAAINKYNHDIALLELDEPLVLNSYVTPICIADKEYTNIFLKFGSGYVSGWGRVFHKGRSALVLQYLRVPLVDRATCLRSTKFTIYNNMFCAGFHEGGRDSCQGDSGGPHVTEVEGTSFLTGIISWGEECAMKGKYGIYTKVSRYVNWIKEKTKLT

For the compound `CC[C@H](C)[C@H](NC(=O)[C@H](C)NC(=O)[C@H](CCC(=O)O)NC(=O)[C@H](Cc1ccccc1)NC(=O)[C@H](CC(=O)O)NC(=O)[C@H](Cc1ccccc1)NC(=O)[C@@H]1CCCN1C(=O)[C@@H]1CCCN1C(=O)[C@H](C)NC(=O)[C@@H](NC(=O)[C@H](CCCCN)NC(=O)[C@H](Cc1cnc[nH]1)NC(=O)[C@H](CCSC)NC(=O)[C@H](CCCCN)NC(=O)[C@@H]1CCCN1C(=O)[C@@H](N)CCC(=O)O)[C@@H](C)O)C(=O)N1CCC[C@H]1C(=O)N[C@@H](CCC(=O)O)C(=O)N[C@@H](CCC(=O)O)C(=O)N[C@@H](Cc1ccc(O)cc1)C(=O)N[C@@H](CC(C)C)C(=O)N[C@@H](CC(=O)O)C(=O)N[C@@H](CC(=O)O)C(=O)N[C@@H](CCC(=O)O)C(=O)N[C@@H](CO)C(=O)O`, the result in the experiment filed under Homo sapiens [1] was inactive. For the same compound, the outcome in the experiment listed under Homo sapiens [2] was Active. Also, in the experiment with Plasma, the Activity result is “Dose-dependent effect”.
As a reminder, the inhibition is the percentage by which the read-out fell short of the control. A lower inhibition goes with a response near the control. For the compound `CC[C@H](C)[C@H](NC(=O)[C@H](C)NC(=O)[C@H](CCC(=O)O)NC(=O)[C@H](Cc1ccccc1)NC(=O)[C@H](CC(=O)O)NC(=O)[C@H](Cc1ccccc1)NC(=O)[C@@H]1CCCN1C(=O)[C@@H]1CCCN1C(=O)[C@H](C)NC(=O)[C@@H](NC(=O)[C@H](CCCCN)NC(=O)[C@H](Cc1cnc[nH]1)NC(=O)[C@H](CCSC)NC(=O)[C@H](CCCCN)NC(=O)[C@@H]1CCCN1C(=O)[C@H](CCC(=O)O)NC(=O)[C@H](C)NC(=O)[C@@H](NC(=O)[C@H](CC(=O)O)NC(=O)CNC(=O)[C@H](CCC(N)=O)NC(=O)[C@H](CC(=O)O)NC(=O)[C@@H](N)CO)C(C)C)[C@@H](C)O)C(=O)N1CCC[C@H]1C(=O)N[C@@H](CCC(=O)O)C(=O)N[C@@H](CCC(=O)O)C(=O)N[C@@H](Cc1ccc(O)cc1)C(=O)N[C@@H](CC(C)C)C(=O)N[C@@H](CC(=O)O)C(=O)N[C@@H](CC(=O)O)C(=O)N[C@@H](CCC(=O)O)C(=O)N[C@@H](CO)C(=O)O`, the inhibition is less than 5% in experiment [3]; less than 5% in experiment [4]; 20% in [5]; less than 5% in the experiment listed under Homo sapiens [6]; less than 5% in experiment [7]; less than 5% in experiment [8]. Also, the inhibition in experiment [9] was less than 5%; in [10] it was 20%; against Trypsin (Homo sapiens) [11] it was 20%; in [12] it was less than 5%; in experiment [13], less than 5%; on Trypsin (Homo sapiens) [15], less than 5%. For the same compound, the inhibition in experiment [16], in experiment [17] and in [18] was less than 5% throughout. Also, the result in the experiment listed under Homo sapiens [1] was inactive. The result in the experiment listed under Homo sapiens [2] and in the experiment listed under Homo sapiens [14] was Active. Besides, in the experiment with Plasma, the Activity entry is “Dose-dependent effect”.
Turning to `CC[C@H](C)[C@H](NC(=O)[C@H](C)NC(=O)[C@H](CCC(=O)O)NC(=O)[C@H](Cc1ccccc1)NC(=O)[C@H](CC(=O)O)NC(=O)[C@H](Cc1ccccc1)NC(=O)[C@@H]1CCCN1C(=O)[C@@H]1CCCN1C(=O)[C@H](C)N)C(=O)N1CCC[C@H]1C(=O)N[C@@H](CCC(=O)O)C(=O)N[C@@H](CCC(=O)O)C(=O)N[C@@H](Cc1ccc(O)cc1)C(=O)N[C@@H](CC(C)C)C(=O)N[C@@H](CC(=O)O)C(=O)N[C@@H](CC(=O)O)C(=O)N[C@@H](CCC(=O)O)C(=O)N[C@@H](CO)C(=O)O` (H-APPFDFEAIPEEYLDDES-OH), the Activity result in the experiment on Plasma was “Dose-dependent effect”.
